Laboratory results published in the supplement of paper PMC11451515.

Experiments:
Assay in all cases: AUC of viability dose-response curve (% viability x log10 dose units); higher = less sensitive
Details in all cases: 48 h
SEM cells = tested on: SEM cells
In short: (§1)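 Leukemia cells adapted to each medium were seeded in 1536-well plates (500 or 1000 cells/well). They were dosed with library compounds in DMSO at 11 threefold doses, 47 μM to 0.79 nM, for 48 h at 37°C. CellTiter-Glo One luminescence was normalised per plate to DMSO and cell-free wells. Area under the curve was integrated by trapezoidal rule over log10 doses on a four-parameter log-logistic fit; curves exceeding full viability were scaled and curves failing quality control removed.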

P12-Ichikawa = tested on: P12-Ichikawa
In short: as §1

NOMO1 = tested on: NOMO1
In short: as §1

[1] = RPMI 5 mM glucose + 10% dialyzed FBS

| SMILES | AUC of viability dose-response curve (SEM cells; HPLM + 10% dialyzed FBS) | AUC of viability dose-response curve (SEM cells; RPMI 5 mM glucose + 10% FBS) | AUC of viability dose-response curve (SEM cells; [1]) | AUC of viability dose-response curve (P12-Ichikawa; HPLM + 10% dialyzed FBS) | AUC of viability dose-response curve (P12-Ichikawa; RPMI 5 mM glucose + 10% FBS) | AUC of viability dose-response curve (P12-Ichikawa; [1]) | AUC of viability dose-response curve (NOMO1; HPLM + 10% dialyzed FBS) | AUC of viability dose-response curve (NOMO1; RPMI 5 mM glucose + 10% FBS) | AUC of viability dose-response curve (NOMO1; [1]) |
| --- | --- | --- | --- | --- | --- | --- | --- | --- | --- |
| CC\1=C(C(=O)N(\C=C1)C2=CC=C(C=C2)C3=NC=CO3)/C4=CC5=CN=C(N)N=C5C=C4 | 383 | 387 | 350 | 472 | 467 | 465 | 470 | 456 | 472 |
| N[S+](=O)([O-])c1cc(Cl)c(Cl)c([S+](N)(=O)[O-])c1 | 450 | 446 | 449 | 448 | 460 | 473 | 453 | 445 | 458 |
| CCC1(c2ccc(N)cc2)CCC(=O)NC1=O (stereo unspecified) | 433 | 424 | 401 | 449 | 427 | 434 | 463 | 473 | 465 |
| Clc1cc(Cl)cc(CNc2ncncc2-c2ccc3c(c2)OCO3)c1 | 441 | 437 | 435 | 431 | 429 | 450 | 414 | 412 | 418 |
| CC(C)Nc1cc(C(F)(F)F)cc2nc(NC(=O)c3cccnc3)nn12 | 340 | 323 | 329 | 334 | 364 | 350 | 406 | 394 | 386 |
| O=C1\C=C/C[C@@H]2[C@H]3CCCN4CCC[C@@H](CN12)[C@@H]34 | 465 | 441 | 476 | 473 | 429 | 469 | 456 | 442 | 448 |
| CCNC(=O)c1cc2c(-c3cc(OCCN4CCCC4)c(Cl)cc3Cl)nc(N)nc2s1 | 379 | 375 | 368 | 415 | 389 | 380 | 381 | 355 | 373 |
| O=C1Nc2ccc(Cl)cc2[C@@](C#CC2CC2)(C(F)(F)F)O1 | 413 | 389 | 375 | 430 | 395 | 378 | 381 | 364 | 437 |
| Cc1c(Cn2c(C)nc3c(C(=O)O)cc(N4CCOCC4)cc32)cccc1C(F)(F)F | 469 | 463 | 455 | 472 | 463 | 470 | 448 | 474 | 465 |
| CC(C)C[C@H](NC(=O)[C@@H](NC(=O)c1cccc(-c2ccccc2)n1)[C@@H](C)O)B(O)O | 155 | 149 | 149 | 197 | 184 | 201 | 212 | 218 | 230 |
| O=C(/C=C/c1cccc([S+](=O)([O-])Nc2ccccc2)c1)NO | 284 | 277 | 289 | 362 | 352 | 365 | 396 | 402 | 397 |
| CCCCCCCc1ccc(CCc2cccc(O)c2C(=O)O)cc1 | 474 | 474 | 461 | 445 | 434 | 435 | 472 | 445 | 441 |
| O=C1Nc2cc(Br)ccc2/C1=C1/Nc2ccccc2/C1=N\O | 296 | 299 | 290 | 365 | 377 | 382 | 366 | 391 | 401 |
| CC(C)Oc1cc(Nc2nc(N[C@@H](C)c3ccc(F)cn3)ncc2Cl)n[nH]1 | 319 | 310 | 291 | 344 | 349 | 366 | 449 | 409 | 412 |
